Measurements: ChEMBL document CHEMBL1129022, “Synthesis and antibacterial activity of new tropone-substituted phenyloxazolidinone antibacterial agents 2. Modification of the phenyl ring the potentiating effect of fluorine substitution on in vivo activity” (1996)
Converted amounts (≈) assume the structure as drawn.

Tests used:
Format in all cases: functional
Enterococcus faecalis = experiment: Compound was tested in vitro for antibacterial activity against Enterococcus faecalis UC 9217.
Mus musculus = experiment: Amount of drug required (mg/kg body weight/dose) to cure 50% of infected mice subjected to a lethal systemic infection with Staphylococcus aureus UC 9213
[1] = test system: Staphylococcus epidermidis; experiment: Compound was tested in vitro for antibacterial activity against methicillin-resistant Staphylococcus epidermidis UC 12084.
Streptococcus pneumoniae = experiment: Compound was tested in vitro for antibacterial activity against Streptococcus pneumoniae UC 9912.
Staphylococcus aureus [2] = experiment: Compound was tested in vitro for antibacterial activity against methicillin-susceptible Staphylococcus aureus UC 9213.
Bacteroides fragilis = experiment: Compound was tested in vitro for antibacterial activity against Bacteroides fragilis UC 12199.
Staphylococcus aureus [3] = experiment: Compound was tested in vitro for antibacterial activity against methicillin-resistant Staphylococcus aureus UC 6685
Escherichia coli [4] = experiment: Compound was tested in vitro for antibacterial activity against Escherichia coli extracts, using cell free prokaryotic transcription coupled translation (T/T) assay at 2 ug/mL
[5] = test system: Mycobacterium tuberculosis; experiment: Compound was tested in vitro for antibacterial activity against Mycobacterium tuberculosis H37Rv.
Escherichia coli [6] = experiment: Compound was tested in vitro for antibacterial activity against Escherichia coli extracts, using cell free prokaryotic transcription coupled translation (T/T) assay.; conditions: dose or concentration not given here

Row | Compound | MIC (Enterococcus faecalis) [µg/mL] | ED50 (Mus musculus) [mg/kg] | MIC [1] [µg/mL] | MIC (Streptococcus pneumoniae) [µg/mL] | MIC (Staphylococcus aureus [2]) [µg/mL] | MIC (Bacteroides fragilis) [µg/mL] | MIC (Staphylococcus aureus [3]) [µg/mL] | inhibition (Escherichia coli [4]) [%] | MIC [5] [µg/mL] | inhibition (Escherichia coli [6]) [%]
1 | COc1ccc(-c2ccc(N3CC(CNC(C)=O)OC3=O)cc2F)ccc1=O (centres undefined) | 1 (≈ 2.59 µM) | 7.7 | 0.5 (≈ 1.29 µM) | 0.25 (≈ 0.647 µM) | 1 (≈ 2.59 µM) |  |  |  |  | 
2 | COc1ccc(-c2c(F)cc(N3C[C@H](CNC(C)=O)OC3=O)cc2F)ccc1=O | 1 (≈ 2.47 µM) | 2.3 | 0.5 (≈ 1.24 µM) | 0.25 (≈ 0.618 µM) | 1 (≈ 2.47 µM) | 8 (≈ 19.8 µM) | 0.5 (≈ 1.24 µM) |  |  | 
3 | COc1ccc(-c2ccc(N3CC(CNC(C)=O)OC3=O)cc2)ccc1=O (centres undefined) | 1 (≈ 2.71 µM) | 12.2 | 0.5 (≈ 1.36 µM) | 0.25 (≈ 0.679 µM) | 2 (≈ 5.43 µM) |  |  | 89 |  | 
4 | COc1ccc(-c2ccc(N3C[C@H](CNC(C)=O)OC3=O)cc2F)ccc1=O | 0.5 (≈ 1.29 µM) | 4.1 | 0.25 (≈ 0.647 µM) | 0.125 (≈ 0.324 µM) | 1 (≈ 2.59 µM) | 8 (≈ 20.7 µM) | 0.5 (≈ 1.29 µM) |  | < 1 | 
5 | COc1ccc(-c2ccc(N3CC(CNC(C)=O)OC3=O)cc2C(F)(F)F)ccc1=O (centres undefined) | 16 (≈ 36.7 µM) | > 20 | 4 (≈ 9.17 µM) | 4 (≈ 9.17 µM) | 32 (≈ 73.3 µM) |  |  | 58 |  | 
6 | COc1ccc(-c2ccc(N3CC(CNC(C)=O)OC3=O)cc2Cl)ccc1=O (centres undefined) | 2 (≈ 4.96 µM) | > 20 | 1 (≈ 2.48 µM) | 1 (≈ 2.48 µM) | 4 (≈ 9.93 µM) |  |  | 71 |  | 
7 | CN[C@H](CC(C)C)C(=O)N[C@H]1C(=O)N[C@@H](CC(N)=O)C(=O)N[C@H]2C(=O)N[C@H]3C(=O)N[C@H](C(=O)N[C@H](C(=O)O)c4cc(O)cc(O)c4-c4cc3ccc4O)[C@H](O)c3ccc(c(Cl)c3)Oc3cc2cc(c3O[C@@H]2O[C@H](CO)[C@@H](O)[C@H](O)[C@H]2O[C@H]2C[C@](C)(N)[C@H](O)[C@H](C)O2)Oc2ccc(cc2Cl)[C@H]1O [VANCOMYCIN] |  | 2.2 |  | 0.5 (≈ 0.345 µM) |  |  |  |  |  | 
8 | COc1ccc(-c2c(F)cc(N3CC(CNC(C)=O)OC3=O)cc2F)ccc1=O (centres undefined) | 1 (≈ 2.47 µM) | 3.7 | 0.5 (≈ 1.24 µM) | 0.5 (≈ 1.24 µM) | 2 (≈ 4.95 µM) |  |  |  |  | 85
9 | C#CCNc1ccc(-c2ccc(N3C[C@H](CNC(C)=O)OC3=O)cc2F)ccc1=O | 0.5 (≈ 1.22 µM) | 1.3 | 0.25 (≈ 0.611 µM) | 0.125 (≈ 0.305 µM) | 1 (≈ 2.44 µM) | 2 (≈ 4.88 µM) | 0.5 (≈ 1.22 µM) |  |  | 
10 | C/N=c1\ccc(-c2ccc(N3C[C@H](CNC(C)=O)OC3=O)cc2F)ccc1O | 0.25 (≈ 0.649 µM) |  | 0.125 (≈ 0.324 µM) | 0.125 (≈ 0.324 µM) | 0.5 (≈ 1.3 µM) | 2 (≈ 5.19 µM) | 0.25 (≈ 0.649 µM) |  |  | 
